Measured values published in patent publication US8252810B2, “Bicycloamine derivatives” (Eisai R&D Management Co., Ltd., priority 2008, dated 2012).
Counter-ions that a name gives are not always drawn.

Key:
human Nav1.8 = molecular target: T1, human Nav1.8 (Homo sapiens, UniProt Q9Y5Y9); assay: Pharmacological effects on TTX-resistant Na channels in cells expressing human Nav1.8 gene (membrane potential dye, deltamethrin stimulation); format: cell-based
T1 construct: expressed in transfected cells
T1 sequence (Q9Y5Y9 whole entry): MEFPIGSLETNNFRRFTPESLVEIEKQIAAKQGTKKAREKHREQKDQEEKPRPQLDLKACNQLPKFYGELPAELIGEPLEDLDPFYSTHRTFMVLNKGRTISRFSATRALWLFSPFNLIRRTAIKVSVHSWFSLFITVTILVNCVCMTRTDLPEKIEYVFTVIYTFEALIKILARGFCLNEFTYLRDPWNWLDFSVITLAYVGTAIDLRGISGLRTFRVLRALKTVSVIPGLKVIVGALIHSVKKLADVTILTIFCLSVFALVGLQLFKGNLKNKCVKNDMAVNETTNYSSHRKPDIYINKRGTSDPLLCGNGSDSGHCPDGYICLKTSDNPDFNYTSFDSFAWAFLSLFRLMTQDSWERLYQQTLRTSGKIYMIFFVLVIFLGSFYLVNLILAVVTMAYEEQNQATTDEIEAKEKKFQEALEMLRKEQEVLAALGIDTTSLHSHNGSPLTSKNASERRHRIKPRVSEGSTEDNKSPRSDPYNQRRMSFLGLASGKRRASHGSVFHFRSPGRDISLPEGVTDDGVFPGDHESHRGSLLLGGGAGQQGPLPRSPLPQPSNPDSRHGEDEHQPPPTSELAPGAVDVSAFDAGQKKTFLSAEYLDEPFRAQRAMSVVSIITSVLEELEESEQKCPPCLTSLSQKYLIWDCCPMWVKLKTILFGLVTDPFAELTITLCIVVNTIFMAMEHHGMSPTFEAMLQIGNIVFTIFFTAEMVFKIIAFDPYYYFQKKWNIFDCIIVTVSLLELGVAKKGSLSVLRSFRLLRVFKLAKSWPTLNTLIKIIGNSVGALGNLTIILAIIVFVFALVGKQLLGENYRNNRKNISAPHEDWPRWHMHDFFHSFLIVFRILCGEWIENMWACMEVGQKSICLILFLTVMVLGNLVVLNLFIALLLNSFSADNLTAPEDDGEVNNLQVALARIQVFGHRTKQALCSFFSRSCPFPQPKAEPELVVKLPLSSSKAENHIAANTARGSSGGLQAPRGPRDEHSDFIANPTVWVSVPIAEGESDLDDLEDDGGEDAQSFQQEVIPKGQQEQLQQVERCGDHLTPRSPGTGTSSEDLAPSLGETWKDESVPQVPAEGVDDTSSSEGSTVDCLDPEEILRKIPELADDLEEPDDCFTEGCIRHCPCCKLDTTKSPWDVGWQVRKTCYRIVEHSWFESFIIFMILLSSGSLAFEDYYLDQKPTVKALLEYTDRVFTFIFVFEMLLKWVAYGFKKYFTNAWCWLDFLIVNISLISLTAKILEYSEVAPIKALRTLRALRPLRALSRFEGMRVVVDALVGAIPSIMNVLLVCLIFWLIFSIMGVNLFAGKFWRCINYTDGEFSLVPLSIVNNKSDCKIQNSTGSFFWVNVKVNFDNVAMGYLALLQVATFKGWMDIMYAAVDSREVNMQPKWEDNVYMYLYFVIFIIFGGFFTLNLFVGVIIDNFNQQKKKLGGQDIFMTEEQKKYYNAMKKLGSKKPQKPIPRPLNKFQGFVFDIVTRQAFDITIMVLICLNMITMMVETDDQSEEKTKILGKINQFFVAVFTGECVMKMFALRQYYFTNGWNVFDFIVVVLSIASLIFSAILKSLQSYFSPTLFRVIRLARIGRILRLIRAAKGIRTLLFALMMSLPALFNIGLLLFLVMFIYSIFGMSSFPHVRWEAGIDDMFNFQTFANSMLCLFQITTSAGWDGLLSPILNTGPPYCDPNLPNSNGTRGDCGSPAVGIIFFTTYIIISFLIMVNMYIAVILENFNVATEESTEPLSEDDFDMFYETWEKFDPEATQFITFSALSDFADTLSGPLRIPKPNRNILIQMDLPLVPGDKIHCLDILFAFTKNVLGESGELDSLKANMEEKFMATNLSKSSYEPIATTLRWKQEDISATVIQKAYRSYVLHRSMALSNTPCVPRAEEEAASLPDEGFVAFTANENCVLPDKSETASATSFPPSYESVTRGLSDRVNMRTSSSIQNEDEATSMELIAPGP
Method: Pharmacological Effects on TTX-Resistant Na Channels in Cells Expressing Human Nav1.8 Gene
A cell line expressing human Nav1.8 gene was used to evaluate the pharmacological effects of compounds of the invention.
. A membrane potential-sensitive dye containing TTX (final concentration: 0.25 μM) was added to cells expressing human Nav1.8, prior to incubation at 37° C. for 30-60 minutes. • 2. The test compound was added to the cells, and the mixture was stationed for 15-30 minutes at room temperature while shielded from light. • 3. Deltamethrin (final concentration: 50 μM), a Nav1.8 channel stimulant, was added, and the change in fluorescence intensity due to increased membrane potential was measured. Pharmacological Evaluation
The Nav1.8 channel inhibition of the test compound was determined by the following equation. […] Test Results

[1] = tested on: sodium channels in cultured rat hippocampus; conditions: Patent document 1, Example 129; cited from earlier work
ectopic firing = conditions: as described in Patent document 1, Example 129; cited from earlier work

## CNCCCN1c2ccccc2CCc2ccccc21 [desipramine]
Human Nav1.8; 30 μM desipramine, reference for complete inhibition under deltamethrin stimulation
  Nav1.8 channel inhibition: completely inhibits

## O=c1[nH]cccc1CN1CC2CCCC(C1)C2/C=C/c1ccccc1F (stereo not shown)
[1]
  inhibitory activity against sodium channels: has an inhibitory activity
Ectopic firing
  inhibitory activity against ectopic firing: inadequate

## CCn1c(C)nc(=O)n(C[C@H](O)CN2[C@@H]3CC[C@H]2C[C@@H](OCc2ccccc2CF)C3)c1=O [Example 66, (Endo)-1-ethyl-3-{(R)-3-[3-(2-fluoromethylbenzyloxy)-8-azabicyclo[3.2.1]oct-8-yl]-2-hydroxypropyl}-6-methyl-1H-[1,3,5]triazine-2,4-dione oxalate]
Human Nav1.8
  IC50: 5.4 µM
